This is an account of results in patent US8821568B2, “Implant modified with non-hydroxylated vitamin D precursors” (Numat Biomedical S.L., priority 2008, dated 2014).

For experiment [1], the system named is MC3T3-E1 cells. Description: ALP activity in cell monolayer on coated titanium implants. The format is cell-based, mouse. Particulars: Ti implants, day 21. The method, then: To test the effect of the surface modification, 96-well plates were used. Ti disks were placed into the wells and treatments and UV-activation were performed over there. Cells grown onto untreated polystyrene tissue culture plastic (TCP) were added as a control for all the experiments. Cells were seeded at a density of 30,000 cells/cm^2 and they were maintained in α-MEM supplemented with 10% FCS and antibiotics. Culture media was collected after 48 hours, to test cytotoxicity and the production of the hydroxylated form of vitamin D, 25-D3. Cells were harvested after two days of culture using Trizol reagent (Roche Diagnostics, Mannheim, Germany), to analyze gene expression of several osteoblast differentiation markers and enzymes involved in vitamin D synthesis using real-time RT-PCR. On the other hand, MC3T3-E1 cells were harvested after 21 days to measure calcium content and ALP activity in the cell monolayer.
Cell monolayer was collected at 21 cell differentiation days and PBS 0.1% Triton X-100 was added to solubilize proteins. Cell lysates were put into freeze/thaw cycles (liquid nitrogen and 37° C. water bath) to improve protein recovery. After centrifugation at 33,000 g for 15 min at 4° C., supernatants acquired were assayed for ALP activity, calcium content and total protein determination. ALP activity was calculated by measuring the cleavage of p-Nitrophenyl Phosphate (pNPP) (Sigma, St. Louis, Mo., USA) in a soluble yellow end product which absorbs at 405 nm. A volume of 100 μl of this substrate was used in combination with 25 μl of each sample supernatant or standard point. The standard curve was prepared from calf intestinal alkaline phosphatase (CIAP, 1 U/μl) (Promega, Madison, Wis., USA) by mixing 1 μl from the stock CIAP with 5 ml of alkaline phosphatase buffer (1:5000 dilution), and then making 1:5 serial dilutions. Once the reaction was carried out, after 30 min in dark at room temperature, it was stopped with the addition of 50 μl of 3 M sodium hydroxide. At this point, absorbance was read at 405 nm.
Total protein was determined using a BCA protein assay kit (Pierce, Rockford, Ill., USA). For the analysis, cell supernatants were diluted 1:1 in PBS 0.1% Triton X-100. Standard curve and samples were analyzed as described by the manufacturer and reading the absorbance at 562 nm.

Experiment [2] relates to MC3T3-E1 cells. Description: Real-time RT-PCR of vitamin D hydroxylation/degradation enzymes (CYP27A1, CYP27B1, CYP24A1), plastic wells. Particulars: TCP, 2 days. The format is cell-based, mouse. The method, then:
To test the effect of the different treatments onto the plastic wells, 96-well plates made of polystyrene were used and the treatments with 7-DHC performed directly onto them. Cells grown onto untreated TCP were added as a control for all the experiments. Cells were seeded at a density of 30,000 cells/cm^2 and they were maintained in α-MEM supplemented with 10% FCS and antibiotics. Culture media was collected after 48 hours, to test cytotoxicity and the production of the hydroxylated forms of vitamin D. Cells were harvested after 2 days of culture using Trizol reagent (Roche Diagnostics, Mannheim, Germany), to analyse early gene expression response of several osteoblast differentiation markers and enzymes involved in vitamin D synthesis using real-time RT-PCR.
RNA was isolated from cells using a monophasic solution of phenol and guanidine thiocyanate (Trizol, Roche Diagnostics, Mannheim, Germany) according to the manufacturer's protocol. RNA was quantified at 260 nm using a Nanodrop spectrophotometer (NanoDrop Technologies, Wilmington, Del., USA).
Total RNA previously isolated was reverse-transcribed to cDNA using High Capacity RNA to cDNA kit (Applied Biosystems, Foster City, Calif.) according to the protocol of the supplier. The same amount of total RNA from each sample was converted into cDNA. Each cDNA was diluted ¼ and aliquots were stored at −20° C. until the PCR reactions were carried out.
Real-time RT-PCR was performed for two reference genes: 18S ribosomal RNA (18S rRNA), glyceraldehyde-3-phosphate dehydrogenase (GAPDH), and 11 target genes alkaline phospathase (ALP), Interleukin 6 (IL-6), Collagen (Coll-1), Osteocalcin (OC), Bone Morphogenetic Protein 2 (BMP-2), Osterix (Osx), Receptor activator of nuclear factor kappa-B ligand (RANKL), Osteoprogesterin (OPG) and genes involved in vitamin D synthesis such as Vitamin D3 25-hydroxylase (CYP27A1), 25 hydroxyvitamin D3-1-alpha hydroxylase (CYP27B1) and 1,25-dihydroxyvitamin D3 24-hydroxylase (CYP24A1).
Real-time PCR were performed in the Lightcycler 480® (Roche Diagnostics, Germany). […] After each cycle, fluorescence was measured at 72° C. […]
To allow relative quantification after PCR, real-time efficiencies were calculated from the given slopes in the LightCycler 480 software (Roche Diagnostics, Mannheim, Germany) using serial dilutions. Relative quantification after PCR was calculated by normalizing target gene concentration in each sample by the concentration mean of the two reference genes in given sample using the “advanced relative quantification method” provided by the LightCycler 480 analysis software.

For the molecule `CC(C)CCC[C@@H](C)[C@H]1CC[C@H]2C3=CC=C4C[C@@H](O)CC[C@]4(C)[C@H]3CC[C@]12C` [7-DHC, 7-dehydrocholesterol], the ALP activity result with MC3T3-E1 cells [1] (UV-treated vs UV-untreated group) was “significant higher ALP activity”; with MC3T3-E1 cells [1] (UV-untreated, percentage of ethanol UV-untreated group set to 100%, mean±SEM), 44.75±3.50%. In addition, in the experiment with MC3T3-E1 cells [2] (UV-irradiated, higher concentrated samples, significance was not reached), the “CYP27B1 mRNA levels” value is “increase in mRNA levels”. Besides, the “CYP27A1 mRNA levels” value in the experiment with MC3T3-E1 cells [2] (UV-treated doses above the lowest, vs UV-untreated corresponding doses) is “dose-response increase”.
